{"source": "paper PMC11428215", "about": "“Unveiling a New Antimicrobial Peptide with Efficacy against P. aeruginosa and K. pneumoniae from Mangrove-Derived Paenibacillus thiaminolyticus NNS5-6 and Genomic Analysis” (Antibiotics, 2024)", "key": {"[1]": {"tested_on": "P. aeruginosa TISTR 357", "test": "Time-kill assay", "type": "cell-based, Pseudomonas aeruginosa", "settings": "for reduction rate of viable cells: from initial treatment until eradication, 5 × 10^5 CFU/mL, CAMHB, 37 °C", "method": "P. aeruginosa TISTR 357 and K. pneumoniae TISTR 1383 were separately adjusted to an initial treatment cell density of 5 × 10^5 CFU/mL with CAMHB. The experiment preparation followed the microdilution assay procedures. […] The reactions were carried out at 37 °C, followed by spreading the entire volume from each well in each treatment condition on MH agar at specific time intervals (0–24 h). The plates were placed in a 37 °C incubator for 24 h before counting the colonies. The trends in bacterial reduction were graphically depicted using a logarithmic scale of viable cells. The bacterial cell reduction was determined within 24 h. Each experiment was performed in triplicate on the 96-well plates."}, "[2]": {"tested_on": "P. aeruginosa TISTR 357", "test": "Compatibility with surfactants, residual antibacterial activity", "type": "physicochemical, Pseudomonas aeruginosa", "settings": "AMP 16 µg/mL, agar well diffusion read-out, % of non-treated AMP, mean ± SD, n = 3", "description": "(§1) The AMP was dissolved in sterile purified water and adjusted a final concentration to 16 µg/mL. The sensitivity of the AMP to temperatures of 37, 40, 50, 60, 80, and 100 °C, as well as autoclaving at 121 °C for 15 and 30 min was evaluated. The sensitivity of the AMP to proteolytic enzymes with different digesting characteristics was studied by incubating with a concentration of 1 mg/mL of proteinase K, trypsin, and α-chymotrypsin (Sigma-Aldrich, Warren, MI, USA). The compatibility of the AMP with surfactants was evaluated by exposing the AMP to 1% SDS or 1% Triton X-100 (AppliChem GmbH, Darmstadt, Germany). The degradation of the AMP under various pH conditions, including physiological and extended alkaline conditions, was evaluated by adjusting the pH of the solution to 1.2, 4.5, 6.8, 7.4, 8.0, 10.0, 12.0, and 14.0. After incubation, the pH of the AMP solution was neutralized to the original pH before being assessed for antibacterial activity. The antibacterial assay against P. aeruginosa TISTR 357 was conducted using the agar well diffusion assay in triplicate. The stability profiles are presented as the percentage of the residual activity compared with the non-treatment conditions (mean ± SD), and statistical significance was determined by the Student’s t-test at a p-value < 0.05."}, "[3]": {"tested_on": "P. aeruginosa TISTR 357", "type": "cell-based, Pseudomonas aeruginosa", "settings": "TISTR 357, 24 h", "method": "The MIC and MBC of the purified AMP were determined using the broth microdilution method following the guidance provided by the Clinical and Laboratory Standards Institute (CLSI). P. aeruginosa TISTR 357 and K. pneumoniae TISTR 1383 were cultured on MH agar and incubated at 37 °C for 18 h. A single colony of the tested bacteria was suspended in 0.85% NaCl until the suspension turbidity reached an OD of 0.1 at 625 nm. The cells were then diluted to 5 × 10^6 CFU/mL using cation-adjusted Mueller Hinton broth (CAMHB). The diluted cell suspension of 10 µL was transferred into each well of a 96-well plate with a final volume of 100 µL per well. The AMP was added to achieve final concentrations ranging from 0.125 to 64 µg/mL. Colistin was used as the positive control, while antibiotic-free samples were used as negative controls. The 96-well plate was incubated at 37 °C for 24 h. Each strain was tested in triplicate. […] Subsequently, 100 µL of each dilution was spread on MH agar and then incubated at 37 °C for 24 h. The MBC was identified as the lowest concentration at which no bacterial colony growth was observed on the agar plate."}, "[4]": {"tested_on": "P. aeruginosa TISTR 357", "test": "Stability against pH, residual antibacterial activity", "type": "physicochemical, Pseudomonas aeruginosa", "settings": "neutralized before assay, AMP 16 µg/mL, agar well diffusion read-out, % of non-treated AMP, mean ± SD, n = 3", "description": "as §1"}}, "note": "No end group written: not given here."}
{"sequence": "VKGDGGPGTVYTM [NNS5-6 AMP]", "values": [{"measurement": "reduction rate of viable cells", "setting": "[1]; 1× MIC", "value": 0.6297, "unit": "log CFU/h"}, {"measurement": "treatment time to eradication of viable cells", "setting": "[1]; 1× and 2× MIC", "value": 8, "unit": "h"}, {"measurement": "reduction rate of viable cells", "setting": "[1]; 2× MIC", "value": 0.6421, "unit": "log CFU/h"}, {"measurement": "% Residual Activity of NNS5-6 AMP against P. aeruginosa TISTR 357", "setting": "[2]; with 1% SDS, 1 h", "value": "116.77 ± 1.80", "unit": "%"}, {"measurement": "% Residual Activity of NNS5-6 AMP against P. aeruginosa TISTR 357", "setting": "[2]; with 1% SDS, 6 h", "value": "122.52 ± 1.86", "unit": "%"}, {"measurement": "% Residual Activity of NNS5-6 AMP against P. aeruginosa TISTR 357", "setting": "[2]; with 1% SDS, 12 h", "value": "119.19 ± 1.53", "unit": "%"}, {"measurement": "% Residual Activity of NNS5-6 AMP against P. aeruginosa TISTR 357", "setting": "[2]; with 1% Triton X-100, 1 h", "value": "116.17 ± 0.60", "unit": "%"}, {"measurement": "% Residual Activity of NNS5-6 AMP against P. aeruginosa TISTR 357", "setting": "[2]; with 1% Triton X-100, 6 h", "value": "120.28 ± 1.53", "unit": "%"}, {"measurement": "% Residual Activity of NNS5-6 AMP against P. aeruginosa TISTR 357", "setting": "[2]; with 1% Triton X-100, 12 h", "value": "120.81 ± 1.53", "unit": "%"}, {"measurement": "MBC", "setting": "[3]", "value": 4, "unit": "µg/mL"}, {"measurement": "MIC", "setting": "[3]", "value": 4, "unit": "µg/mL"}, {"measurement": "% Residual Activity of NNS5-6 AMP against P. aeruginosa TISTR 357", "setting": "[4]; pH 1.2, 1 h", "value": "89.62 ± 1.85", "unit": "%"}, {"measurement": "% Residual Activity of NNS5-6 AMP against P. aeruginosa TISTR 357", "setting": "[4]; pH 1.2, 6 h", "value": "83.83 ± 1.72", "unit": "%"}, {"measurement": "% Residual Activity of NNS5-6 AMP against P. aeruginosa TISTR 357", "setting": "[4]; pH 1.2, 12 h", "value": "81.14 ± 1.71", "unit": "%"}, {"measurement": "% Residual Activity of NNS5-6 AMP against P. aeruginosa TISTR 357", "setting": "[4]; pH 4.5, 1 h", "value": "97.31 ± 0.33", "unit": "%"}, {"measurement": "% Residual Activity of NNS5-6 AMP against P. aeruginosa TISTR 357", "setting": "[4]; pH 4.5, 6 h", "value": "95.69 ± 1.75", "unit": "%"}, {"measurement": "% Residual Activity of NNS5-6 AMP against P. aeruginosa TISTR 357", "setting": "[4]; pH 4.5, 12 h", "value": "95.62 ± 1.19", "unit": "%"}, {"measurement": "% Residual Activity of NNS5-6 AMP against P. aeruginosa TISTR 357", "setting": "[4]; pH 6.8, 1 h", "value": "97.31 ± 3.33", "unit": "%"}, {"measurement": "% Residual Activity of NNS5-6 AMP against P. aeruginosa TISTR 357", "setting": "[4]; pH 6.8, 6 h", "value": "96.46 ± 0.57", "unit": "%"}, {"measurement": "% Residual Activity of NNS5-6 AMP against P. aeruginosa TISTR 357", "setting": "[4]; pH 6.8, 12 h", "value": "96.00 ± 0.57", "unit": "%"}, {"measurement": "% Residual Activity of NNS5-6 AMP against P. aeruginosa TISTR 357", "setting": "[4]; pH 7.4, 1 h", "value": "98.65 ± 0.58", "unit": "%"}, {"measurement": "% Residual Activity of NNS5-6 AMP against P. aeruginosa TISTR 357", "setting": "[4]; pH 7.4, 6 h", "value": "98.18 ± 1.15", "unit": "%"}, {"measurement": "% Residual Activity of NNS5-6 AMP against P. aeruginosa TISTR 357", "setting": "[4]; pH 7.4, 12 h", "value": "98.48 ± 0.66", "unit": "%"}, {"measurement": "% Residual Activity of NNS5-6 AMP against P. aeruginosa TISTR 357", "setting": "[4]; pH 8.0, 1 h", "value": "99.23 ± 1.15", "unit": "%"}, {"measurement": "% Residual Activity of NNS5-6 AMP against P. aeruginosa TISTR 357", "setting": "[4]; pH 8.0, 6 h", "value": "97.22 ± 0.98", "unit": "%"}, {"measurement": "% Residual Activity of NNS5-6 AMP against P. aeruginosa TISTR 357", "setting": "[4]; pH 8.0, 12 h", "value": "98.48 ± 0.87", "unit": "%"}, {"measurement": "% Residual Activity of NNS5-6 AMP against P. aeruginosa TISTR 357", "setting": "[4]; pH 10.0, 1 h", "value": "98.85 ± 1.20", "unit": "%"}, {"measurement": "% Residual Activity of NNS5-6 AMP against P. aeruginosa TISTR 357", "setting": "[4]; pH 10.0, 6 h", "value": "97.42 ± 0.82", "unit": "%"}, {"measurement": "% Residual Activity of NNS5-6 AMP against P. aeruginosa TISTR 357", "setting": "[4]; pH 10.0, 12 h", "value": "98.10 ± 1.44", "unit": "%"}, {"measurement": "% Residual Activity of NNS5-6 AMP against P. aeruginosa TISTR 357", "setting": "[4]; pH 12.0, 1 h", "value": "94.31 ± 0.68", "unit": "%"}, {"measurement": "% Residual Activity of NNS5-6 AMP against P. aeruginosa TISTR 357", "setting": "[4]; pH 12.0, 6 h", "value": "93.40 ± 0.78", "unit": "%"}, {"measurement": "% Residual Activity of NNS5-6 AMP against P. aeruginosa TISTR 357", "setting": "[4]; pH 12.0, 12 h", "value": "90.10 ± 2.38", "unit": "%"}, {"measurement": "% Residual Activity of NNS5-6 AMP against P. aeruginosa TISTR 357", "setting": "[4]; pH 14.0, 1 h", "value": "90.77 ± 0.88", "unit": "%"}, {"measurement": "% Residual Activity of NNS5-6 AMP against P. aeruginosa TISTR 357", "setting": "[4]; pH 14.0, 6 h", "value": "84.40 ± 1.15", "unit": "%"}]}
